In patent US11992491B2, “Crystalline salts of 5-methyl-(6S)-tetrahydrofolic acid and L-valine ethyl ester” (Merck Patent GmbH, priority 2018, dated 2024):

Legend:
[1] = for kinetic solubility: 42.5 mg in 2.00 mL purified/de-ionized water, agitated at room temperature for one minute, filtered, gravimetric evaluation of residue
Experimental: (§1) 42.5 mg of the anhydrous form of the crystalline 5-methyl-(6S)-tetrahydrofolic acid L-valine ethyl ester salt (Form A) according to Example 2 was weighed into a 7 mL glass vial with a screw cap. 2.00 mL of purified/de-ionized water (for instance water for chromatography) was added to the solid using an adjustable volumetric pipette. The mixture was vigorously agitated at room temperature for one minute. […] The dilute suspension was filtered by centrifugal filtration and 1.50 mL of the aqueous solution was transferred into a tared glass vial (about 10 mL volume). The water was evaporated in an air dryer at 40° C. for about 15 hours, then at 50° C. for about eight hours, subsequently drying was completed at 50° C. under vacuum (10 to 20 mbar) for about 13 hours. The solubility was determined by gravimetric evaluation of the solid residue.
as §1, with “calcium” for “L-valine ethyl ester”, “salt” for “salt (Form A) according to Example 2”, “The” for “The dilute”

[2] = relative humidity range from 0 to 55%; RH scans 5% per hour
Text: DVS measurements are typically performed with an SPS11-100n “Sorptions Prüfsystem” from ProUmid (formerly “Projekt Messtechnik”), August-Nagel-Str. 23, 89079 Ulm (Germany).
23, 89079 Ulm (Germany). For relative humidity (RH) scans, change rates of 5% per hour were used.

[3] = cited from earlier work; for aqueous solubility: at room temperature, known values for calcium salt polymorphs

Compound | kinetic solubility [1] | change of relative sample mass (DVS) [2] | aqueous solubility [3] | further results
5-methyl-(6S)-tetrahydrofolic acid calcium salt | 9.0 mg of 5-methyl-(6S)-tetrahydrofolic acid per mL | about 6% |  | 
5-methyl-(6S)-tetrahydrofolic acid L-valine ethyl ester salt | 12.5 mg of 5-methyl-(6S)-tetrahydrofolic acid per mL | less than 1% |  | improvement of kinetic solubility versus the known metastable Form 1 of the calcium salt ([1]; versus calcium salt Form 1): about 50%
CN1c2c([nH]c(N)nc2=O)NC[C@@H]1CNc1ccc(C(=O)N[C@@H](CCC(=O)[O-])C(=O)[O-])cc1.[Ca+2] [calcium salt (Form Ill), calcium salt of 5-methyl-(6S)-tetrahydrofolic acid] |  |  | about 2.5 mg/ml | 
CN1c2c(nc(N)[nH]c2=O)NC[C@@H]1CNc1ccc(C(=O)N[C@@H](CCC(=O)O)C(=O)O)cc1 [5-methyl-(6S)-tetrahydrofolic acid] |  |  |  | solubility in water (in words) ([3]; water): poorly soluble
CN1c2c([nH]c(N)nc2=O)NC[C@@H]1CNc1ccc(C(=O)N[C@@H](CCC(=O)[O-])C(=O)[O-])cc1.[Ca+2] [metastable Form I, calcium salt of 5-methyl-(6S)-tetrahydrofolic acid] |  |  | about 10 mg/ml | 
